Experimental data reported in PubChem BioAssay AID2384 (Southern Research Specialized Biocontainment Screening …, 2010).

System: S. typhi GFP reporter counter-screen, fluorescence, 4 h
Assay: S. typhi counter-screen signal inhibition – fluorescence, 4 h, counter-screen for PhoP regulon inhibitor project, dose response (AID 2384)

| Structure (SMILES) | IC50 [µM] |
| --- | --- |
| C#CCOCCOCCOCCNc1nc(N2CCN(C(=O)[C@H](CCCCN)n3cc([C@@H](N)CC(C)C)nn3)CC2)nc(N2CCN(C(=O)[C@H](Cc3cc4ccccc4[nH]3)n3cc([C@@H](N)Cc4ccc(O)cc4)nn3)CC2)n1 | 26.9 |
| Cc1cc(NS(=O)(=O)c2ccc(NC(=O)Nc3cccc(Cl)c3)cc2)no1 | 120 |
| Cc1cc(NC(=O)c2ccccc2)sc1C | 79.8 |
| NC(=O)SCC(=O)Nc1ccc(Cl)cc1 | 46.2 |
| Cc1ccc(Nc2c3c(nc4ccccc24)CCC3)cc1 | 25.8 |
| CCN1/C(=C/c2cc[n+](C)cc2)C=Cc2cc(C)ccc21 | 39.4 |
| COc1ccc(CNCCc2cccc(F)c2)c2ccccc12 | 61.2 |
| O=c1[nH][nH]c(-c2ccccc2O)c1C(C[N+](=O)[O-])c1ccc(Br)cc1 (centres undefined) | 63 |
| CN1C(=O)NC(c2ccc(O)cc2)C(C(=O)c2cccs2)C1(O)C(F)(F)F (centres undefined) | 19.1 |
| CCCCNC1=CC(=O)C(=O)c2ccccc21 | 72.8 |
| CCN(CCC(=O)Nc1ccc(Br)c(C)c1)Cc1ccccc1 | 37.9 |
| COc1ccc(CNCC(O)COc2ccc(C(C)(C)c3ccccc3)cc2)cc1 (centres undefined) | 20.4 |
| CNCc1c(OCc2ccccc2F)ccc2ccccc12 | 37.2 |
| Cc1ccc(N=Cc2cc(Br)cc(Cl)c2O)cc1 | 47.1 |
| O=C(CN1CC(c2ccccc2)CC1=O)N/N=C/c1cc(Br)ccc1O (centres undefined) | 40.2 |
| Nc1cc(Cl)c2nonc2c1[N+](=O)[O-] | 32.6 |
| CCCCCCOC(=O)C[N+](C)(C)CCOC1CC2CCC1(C)C2(C)C (centres undefined) | 27 |
| C#CCOCCOCCOCCNc1nc(N2CCN(C(=O)CCCCCCCCCCNC(=O)[C@H](CCCCN)n3cc(CCO)nn3)CC2)nc(N2CCN(C(=O)CCCCCCCCCCNC(=O)[C@H](CCCCN)n3cc(C[C@@H](C)CC)nn3)CC2)n1 | 20 |
| O=C(CCN1CCN(c2ccccc2)CC1)c1ccc(Cl)cc1 | 70.3 |
| CCCCCCCNC(=O)C1(CC2CC(c3cccc(Br)c3)=NO2)CCNCC1 (centres undefined) | 39.8 |
| CCCOc1ccc(C2=CSC3=NCCN23)cc1Cl | 75.1 |
| O=[N+]([O-])c1cc(Cl)c2cccnc2c1O | 4.25 |
| O=Nc1ccc(O)c2ncccc12 | 20 |
| C/C(=C\C(=O)OCCCCCCCCC(=O)O)C[C@@H]1OC[C@H](C[C@@H]2O[C@H]2[C@@H](C)[C@H](C)O)[C@@H](O)[C@H]1O | 38.4 |
| CCCCCC(=O)NC(=S)NNC(=O)CC | 68.8 |
| Cc1cc(C(C)(C)CC(C)(C)C)ccc1OCCOCC[N+](C)(C)Cc1ccccc1 | 16.8 |
| OC(CNCCc1ccc(C(F)(F)F)cc1)COC(c1ccccc1)c1ccccc1 (centres undefined) | 29.6 |

| Structure (SMILES) | IC50 [µM] |
| --- | --- |
| CCCCOc1ccc(C(=O)NNC(=S)NC(=O)CC)cc1 | 33.6 |
| CN1C(=O)N2CN(C3CCCCC3)CN3C(=O)N(C)C1C23 (centres undefined) | 110 |
| CNC[C@H](Cc1ccccc1)NC[C@@H](Cc1cccc2ccccc12)NCCc1ccc(C)cc1 | 14.8 |
| COc1ccc(C(=O)NC(=S)NNC(=O)CCc2ccccc2)cc1 | 138 |
| CCc1ccc2c(c1)C1(NN=C(c3ccc(C)cc3)S1)C(=O)N2 (centres undefined) | 38.5 |
| O=C(N/N=C/c1sc2ccccc2c1O)c1cccc2ccccc12 | 25.8 |
| CCCCn1c(NS(=O)(=O)c2ccccc2)c(C(=O)OCC)c2nc3ccccc3nc21 | 58.9 |
| CC(C)(C)CC(C)(C)c1ccc(OCCOCC[N+](C)(C)Cc2ccccc2)cc1 | 21.6 |
| O=C(COc1ccc(Br)cc1CNCCc1ccccc1)NCc1ccccc1 | 105 |
| CCOC(=O)c1ccccc1-n1c(C)cc(C2N=C(N)Nc3nc4ccccc4n32)c1C (centres undefined) | 39.4 |
| CCCCCc1ccc(OCCCC[n+]2ccccc2)c(CCCCC)c1 | 36.3 |
| C#CCOCCOCCOCCNc1nc(N2CCN(C(=O)CCCCCCCCCCNC(=O)[C@H](CCCCN)n3cc(CCO)nn3)CC2)nc(N2CCN(C(=O)CCCCCCCCCCNC(=O)[C@H](CCCCN)n3cc(CCO)nn3)CC2)n1 | 36.3 |
| O=C(Nc1nnc(-c2cccs2)o1)c1cccc(F)c1 | 28.6 |
| Cc1c(CN(C)C)c2c(n1Cc1ccccc1)C(=O)c1ccc(Br)cc1-2 | 47.2 |
| CCCCCc1ccc(OCCCC[n+]2cccc(C)c2)c(CCCCC)c1 | 64.9 |
| Oc1c(C(Nc2ccccn2)c2cccnc2)cc(Cl)c2cccnc12 (centres undefined) | 25.5 |
| CCOC(=O)C1=C(c2ccccc2)NC(N)=NC1c1ccc(OCc2ccc(C(=O)OC)cc2)cc1 (centres undefined) | 35.8 |
| O=C(N/N=C\C=C\c1ccc([N+](=O)[O-])o1)c1cccs1 | 11 |
| CC1CCC(C(C)C)C(OC(=O)C[n+]2cc(-c3ccc(Cl)cc3)n3c2CCC3)C1 (centres undefined) | 40.3 |
| CNC[C@@H](Cc1ccccc1)NC[C@@H](CC1CCCCC1)NCCCc1ccccc1 | 19.8 |
| CC(NCc1ccc(Cl)cc1)C(O)c1ccccc1 (centres undefined) | 42.8 |
| Oc1ccccc1C(Nc1nccs1)c1ccc2cccnc2c1O (centres undefined) | 18.6 |
| O=C(N/N=C/c1ccc([N+](=O)[O-])o1)C(O)c1ccccc1 (centres undefined) | 37.4 |
| O=C(N/N=C/c1cccs1)c1ccc2nc[nH]c2c1 | 125 |
| CCN(CC(=O)NC(C)(C)C)C(=O)COc1c(Cl)cc(Cl)c2ccc(C)nc12 | 19 |
| Cc1cccc(Nc2cc(C)c3c(O)cccc3n2)c1C | 34 |
| O/N=C/C1=C(Cl)c2ccccc2CC1 | 93.4 |

| Structure (SMILES) | IC50 [µM] |
| --- | --- |
| O=c1c(O)cccc2cc(O)c(O)c(O)c12 | 18.5 |
| O=C(N/N=C/c1cc(Br)ccc1O)c1ccncc1 | 20.6 |
| O=C(Nc1nnc(C(F)(F)F)s1)c1ccc(Br)s1 | 137 |
| Cc1ccc(C(=O)N/C(=C\c2ccc(-c3ccc(Br)cc3)o2)C(=O)NCCCN(C)C)cc1 | 37.4 |
| CO[C@@]1(NC(=O)Cc2cccs2)C(=O)N2C(C(=O)O)=C(COC(N)=O)CS[C@@H]21 | 7.08 |
| Clc1ccc(OCCCNCc2ccccc2)c(Br)c1 | 28.4 |
| CCn1cc(C(=O)O)c(=O)c2cc(F)c(N3CCN(C(=S)Nc4ccccc4OC)CC3)cc21 | 41.1 |
| CC(=O)NC(c1cccs1)c1cc([N+](=O)[O-])c2cccnc2c1O (centres undefined) | 25.4 |
| S=C(Nc1cc(Cl)cc(Cl)c1)NC1CCN(Cc2ccccc2)CC1 | 82 |
| O=C(Nc1nnc(-c2ccco2)o1)c1cccc(Cl)c1 | 43.1 |
| O=C(N/N=C/c1cc(Cl)cc([N+](=O)[O-])c1O)C1CC1 | 98 |
| CC(/C=N/Nc1nc2ccccc2[nH]1)=C\c1ccccc1 | 77.8 |
| COc1ccc(C(=O)CCN2CCc3cc(OC)c(OC)cc3C2)cc1 | 120 |
| O=C(NNC(=S)NC(=O)c1ccccc1)c1ccc(O)cc1 | 51 |
| CN1CCN(C2=Cc3ccccc3Sc3cc(F)c(F)cc32)CC1 | 37.3 |
| COc1ccccc1Nc1nc(NCc2ccco2)c2ccccc2n1 | 56.3 |
| COc1ccc(S(=O)(=O)N2CN3CCN(C3)C2)cc1 | 90.8 |
| Nc1nc(Nc2ccc(Cl)cc2)nc2ccccc12 | 17 |
| Cc1ccc(NC(=O)CNCc2ccccc2)cc1Br | 43 |
| Cc1ccc(Nc2nc(NCCO)c3ccccc3n2)cc1C | 34 |
| O=C(N/N=C/c1ccc([N+](=O)[O-])s1)c1ccccc1Br | 77.5 |
| O=C(/C=C/c1cccs1)NC(=S)NNC(=O)c1ccccc1O | 26.1 |
| C#CCOCCOCCOCCNc1nc(N2CCN(C(=O)CCCCCCCCCCNC(=O)[C@H](CCCCN)n3cc(CCO)nn3)CC2)nc(N2CCN(C(=O)CCCCCCCCCCNC(=O)[C@H](CCCN=C(N)N)n3cc(C[C@@H](C)CC)nn3)CC2)n1 | 18.1 |
| Nc1nc(Nc2ccccc2)nc2ccccc12 | 42.4 |
| O=C(O)c1csc(-c2ccc(Cl)cc2)n1 | 120 |
